Test results as given in article PMC10535864, “Novel Aminopyrimidine-2,4-diones, 2-Thiopyrimidine-4-ones, and 6-Arylpteridines as Dual-Target Inhibitors of BRD4/PLK1: Design, Synthesis, Cytotoxicity, and Computational Studies” (Pharmaceuticals, 2023).

Experiments:
Type in all cases: cell-based
[1] = system: MDA-MB-231 breast cancer cells; test: MTT cytotoxicity assay, MDA-MB-231; details: MDA-MB-231, MTT; for IC50 / viability at 0.312 µM / viability at 0.625 µM / viability at 1.25 µM / viability at 2.5 µM / viability at 5 µM / viability at 10 µM: Homo sapiens; for IC50: mean of three independent experiments ± SD, read-out: IC50 Value MDA-MB-231
Method: (§1) All newly synthetic compounds were tested for cytotoxicity using a six-dose MTT colorimetric assay on three cancer cell lines; namely, breast cancer cells (MDA-MB-231), colorectal adenocarcinoma cells (HT-29) and renal cancer cells (U-937). […] However, renal cancer cells (U-937) were discovered to be the least sensitive.
(§2) Using a six-dose MTT colorimetric assay, all new synthetic compounds were tested for cytotoxicity against three cancer cell lines: MDA-MB-231 breast cancer cells, HT-29 colorectal adenocarcinoma cells, and U-937 renal cancer cells. […] These cell lines were supplied by ATCC (American Type Culture Collection) via the Holding company for biological products and vaccines (VACSERA, Cairo, Egypt). The reference control used was Methotrexate. Detailed descriptions of the MTT colorimetric assay’s protocol can be found in the Supplementary file.
(§3) 1.1.In-vitro cytotoxicity screening
(§4) Using a six-dose MTT colorimetric assay, allnew synthetic compounds were tested for cytotoxicity against three cancer cell lines: MDA-MB-231 breast cancer cells,HT-29 colorectal adenocarcinoma cells, and U-937 renal […]
(§5) The cell lines were supplied by ATCC (American Type Culture Collection). The reference control used was Methotrexate. The cytotoxic activities of the examined compounds were quantified by inoculating a 96-well tissue culture plate with 1 X 10^5 cells / mL (100 uL/well) and incubating it at 37°C for 24 hours to develop a complete monolayer sheet. After forming a confluent sheet of cells, the growth medium was decanted from 96-well microtiter plates, and the cell monolayer was washed twice with wash media. Two-fold dilutions of tested samples were made in RPMI medium with 2% serum (maintenance medium), and 0.1 mL of each dilution was tested in different wells, with three wells serving as controls and receiving only maintenance medium. Following that, the plate was incubated at 37°C and examined. Cells were investigated for any physical signs of toxicity, such as partial or complete monolayer loss, rounding, shrinkage, or cell granulation. MTT solution was prepared (5mg/ml in PBS) (BIO BASIC CANADA INC), and 20 uL MTT solution was added to each well. After 5 minutes on a shaking table at150 rpm to thoroughly mix the MTT into the media, it was incubated (37°C, 5% CO2) for 4 hours to allow the MTT to be metabolized. Formazan (MTT metabolic product) was resuspended in 200 uL DMSO and shaken at 150 rpm for 5 minutes to thoroughly mix the formazan into the solvent. The optical density was measured at 560 nm, and the background was subtracted at 620 nm. Finally, the IC50 of the test compound in comparison to the reference was calculated using the GraphPad Prism software. […]

[2] = system: HT-29 colorectal adenocarcinoma cells; test: MTT cytotoxicity assay, HT-29; details: MTT; for Toxicity % / viability at 0.312 µM / viability at 0.625 µM / viability at 1.25 µM / viability at 2.5 µM / viability at 5 µM / viability at 10 µM: HT29; for viability at 0.312 µM / viability at 0.625 µM / viability at 1.25 µM / viability at 2.5 µM / viability at 5 µM / viability at 10 µM / IC50: Homo sapiens, HT-29; for IC50: mean of three independent experiments ± SD, read-out: IC50 Value HT-29
Method: as §1, §2, §3, §4, §5

[3] = MTT cytotoxicity assay, U-937; details: Homo sapiens, U-937, U937, MTT;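 note: Six-dose MTT colorimetric assay on cell monolayers, formazan absorbance read at 560 nm with 620 nm background removed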
Method: (§6) Using a six-dose MTT colorimetric assay [44, 66], all new synthetic compounds were tested for cytotoxicity against three cancer cell lines: MDA-MB-231 breast cancer cells, HT-29 colorectal adenocarcinoma cells, and U-937 renal cancer cells. […] These cell lines were supplied by ATCC (American Type Culture Collection) via the Holding company for biological products and vaccines (VACSERA, Cairo, Egypt). The reference control used was Methotrexate.
(§7) Using a six-dose MTT colorimetric assay [44, 66], allnew synthetic compounds were tested for cytotoxicity against three cancer cell lines: MDA-MB-231 breast cancer cells,HT-29 colorectal adenocarcinoma cells, and U-937 renal
(§8) The cell lines were supplied by ATCC (American Type Culture Collection). The reference control used was Methotrexate. The cytotoxic activities of the examined compounds were quantified by inoculating a 96-well tissue culture plate with 1 X 10^5 cells / mL (100 uL/well) and incubating it at 37°C for 24 hours to develop a complete monolayer sheet. After forming a confluent sheet of cells, the growth medium was decanted from 96-well microtiter plates, and the cell monolayer was washed twice with wash media. Two-fold dilutions of tested samples were made in RPMI medium with 2% serum (maintenance medium), and 0.1 mL of each dilution was tested in different wells, with three wells serving as controls and receiving only maintenance medium. Following that, the plate was incubated at 37°C and examined. Cells were investigated for any physical signs of toxicity, such as partial or complete monolayer loss, rounding, shrinkage, or cell granulation. MTT solution was prepared (5mg/ml in PBS) (BIO BASIC CANADA INC), and 20 uL MTT solution was added to each well. After 5 minutes on a shaking table at150 rpm to thoroughly mix the MTT into the media, it was incubated (37C, 5% CO2) for 4 hours to allow the MTT to be metabolized. Formazan (MTT metabolic product) was resuspended in 200 uL DMSO and shaken at 150 rpm for 5 minutes to thoroughly mix the formazan into the solvent. The optical density was measured at 560 nm, and the background was subtracted at 620 nm. Finally, the IC50 of the test compound in comparison to the reference was calculated using the GraphPad Prism software.

U-937 renal cancer cells = test: MTT cytotoxicity assay, U-937; details: MTT; for IC50: Homo sapiens, U-937, mean of three independent experiments ± SD, read-out: IC50 Value U-937; for Toxicity %: U937;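 for all read-outs here: Six-dose MTT colorimetric assay on cell monolayers, formazan absorbance read at 560 nm with 620 nm background removed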
Method: as §6, §7, §8

Structure (SMILES)	IC50 [1] [µM]	viability at 0.312 µM ([1]; 0.312 uM) [%]	viability at 0.625 µM ([1]; 0.625 uM) [%]	viability at 1.25 µM ([1]; 1.25 uM) [%]	viability at 2.5 µM ([1]; 2.5 uM) [%]	viability at 5 µM ([1]; 5 uM) [%]	viability at 10 µM ([1]; 10 uM) [%]	Toxicity % ([1]; 0.312 uM) [%]	Toxicity % ([1]; 0.625 uM) [%]	Toxicity % ([1]; 1.25 uM) [%]	Toxicity % ([1]; 2.5 uM) [%]	Toxicity % ([1]; 5 uM) [%]	Toxicity % ([1]; 10 uM) [%]	Toxicity % ([2]; 0.312 uM) [%]	Toxicity % ([2]; 0.625 uM) [%]	Toxicity % ([2]; 1.25 uM) [%]	Toxicity % ([2]; 2.5 uM) [%]	Toxicity % ([2]; 5 uM) [%]	Toxicity % ([2]; 10 uM) [%]	viability at 0.312 µM ([2]; 0.312 uM) [%]	also measured
CCn1c(N)c(/N=C(/CBr)c2ccc([N+](=O)[O-])cc2)c(=O)[nH]c1=O [Compound 5a, (E)-6-Amino-5-((2-bromo-1-(4-nitrophenyl)ethylidene)amino)-1-ethylpyrimidine-2,4(1H,3H)-dione]	3.24 ± 0.03	99.7	99.6	91.2	53	23.8	4.21	0.266	0.4433	8.821	46.99	76.2	95.79	0.1292	0.2584	5.556	50.3	83.29	97.46	99.9	viability at 0.625 µM ([2]; 0.625 uM): 99.7%; viability at 1.25 µM ([2]; 1.25 uM): 94.4%; viability at 2.5 µM ([2]; 2.5 uM): 49.7%; viability at 5 µM ([2]; 5 uM): 16.7%; viability at 10 µM ([2]; 10 uM): 2.54%; IC50 [2]: 3.09 ± 0.01 µM; viability at 0.312 µM [3]: 99.6%; viability at 0.625 µM [3]: 98.9%; viability at 1.25 µM [3]: 99.6%; viability at 2.5 µM [3]: 89.7%; viability at 5 µM [3]: 55.1%; viability at 10 µM [3]: 12.7%; IC50 (U-937 renal cancer cells): 6.08 ± 0.11 µM; Toxicity % (U-937 renal cancer cells; 0.312 uM): 0.4357%; Toxicity % (U-937 renal cancer cells; 0.625 uM): 1.144%; Toxicity % (U-937 renal cancer cells; 1.25 uM): 0.4357%; Toxicity % (U-937 renal cancer cells; 2.5 uM): 10.29%; Toxicity % (U-937 renal cancer cells; 5 uM): 44.93%; Toxicity % (U-937 renal cancer cells; 10 uM): 87.31%
Cn1c(SCC(=O)c2ccc([N+](=O)[O-])cc2)nc(=O)c(/N=C(/CBr)c2ccc([N+](=O)[O-])cc2)c1N [Compound 8, (E)-6-Amino-5-((2-bromo-1-(4-nitrophenyl)ethylidene)amino)-1-methyl-2-((2-(4-nitrophenyl)-2-oxoethyl)thio)pyrimidin-4(1H)-one]	2.31 ± 0.06	97.6	95.3	83.8	43.7	35.9	35.4	2.394	4.743	16.18	56.29	64.1	64.58	0.08613	0.1292	0.5599	0.3876	50.34	77.91	99.9	viability at 0.625 µM ([2]; 0.625 uM): 99.9%; viability at 1.25 µM ([2]; 1.25 uM): 99.4%; viability at 2.5 µM ([2]; 2.5 uM): 99.6%; viability at 5 µM ([2]; 5 uM): 49.7%; viability at 10 µM ([2]; 10 uM): 22.1%; IC50 [2]: 6.48 ± 0.08 µM; viability at 0.312 µM [3]: 99.6%; viability at 0.625 µM [3]: 99.3%; viability at 1.25 µM [3]: 99.9%; viability at 2.5 µM [3]: 99.8%; viability at 5 µM [3]: 79.6%; viability at 10 µM [3]: 27.6%; IC50 (U-937 renal cancer cells): 7.77 ± 0.04 µM; Toxicity % (U-937 renal cancer cells; 0.312 uM): 0.3813%; Toxicity % (U-937 renal cancer cells; 0.625 uM): 0.6536%; Toxicity % (U-937 renal cancer cells; 1.25 uM): 0.05447%; Toxicity % (U-937 renal cancer cells; 2.5 uM): 0.2179%; Toxicity % (U-937 renal cancer cells; 5 uM): 20.42%; Toxicity % (U-937 renal cancer cells; 10 uM): 72.39%
Nc1c(/N=C(/CBr)c2ccc([N+](=O)[O-])cc2)c(=O)[nH]c(=O)n1Cc1ccccc1Cl [Compound 5c, (E)-6-Amino-5-((2-bromo-1-(4-nitrophenyl)ethylidene)amino)-1-(2-chlorobenzyl) pyrimidine-2,4(1H,3H)-dione]	3.28 ± 0.04	99.4	98.4	96.1	62.4	14.9	5.54	0.6206	1.551	3.901	37.63	85.06	94.46	0.1292	0.2153	6.417	59.99	93.84	94.36	99.9	viability at 0.625 µM ([2]; 0.625 uM): 99.8%; viability at 1.25 µM ([2]; 1.25 uM): 93.6%; viability at 2.5 µM ([2]; 2.5 uM): 40%; viability at 5 µM ([2]; 5 uM): 6.16%; viability at 10 µM ([2]; 10 uM): 5.64%; IC50 [2]: 2.24 ± 0.04 µM; viability at 0.312 µM [3]: 99.7%; viability at 0.625 µM [3]: 99.5%; viability at 1.25 µM [3]: 99.7%; viability at 2.5 µM [3]: 99.3%; viability at 5 µM [3]: 48.2%; viability at 10 µM [3]: 14.3%; IC50 (U-937 renal cancer cells): 6.17 ± 0.15 µM; Toxicity % (U-937 renal cancer cells; 0.312 uM): 0.3268%; Toxicity % (U-937 renal cancer cells; 0.625 uM): 0.4902%; Toxicity % (U-937 renal cancer cells; 1.25 uM): 0.2723%; Toxicity % (U-937 renal cancer cells; 2.5 uM): 0.6536%; Toxicity % (U-937 renal cancer cells; 5 uM): 51.8%; Toxicity % (U-937 renal cancer cells; 10 uM): 85.73%
Nc1c(/N=C(/CBr)c2ccc([N+](=O)[O-])cc2)c(=O)[nH]c(=O)n1Cc1ccccc1 [Compound 5b, (E)-6-Amino-1-benzyl-5-((2-bromo-1-(4-nitrophenyl)ethylidene)amino)pyrimidine-2,4(1H,3H)-dione]	2.37 ± 0.06	99.4	99.4	84.7	45.8	23.2	8.07	0.6206	0.5762	15.34	54.21	76.77	91.93	0	0.1292	6.891	27.39	74.68	88.24	100	viability at 0.625 µM ([2]; 0.625 uM): 99.9%; viability at 1.25 µM ([2]; 1.25 uM): 93.1%; viability at 2.5 µM ([2]; 2.5 uM): 72.6%; viability at 5 µM ([2]; 5 uM): 25.3%; viability at 10 µM ([2]; 10 uM): 11.8%; IC50 [2]: 3.66 ± 0.05 µM; viability at 0.312 µM [3]: 99.9%; viability at 0.625 µM [3]: 99.9%; viability at 1.25 µM [3]: 99.6%; viability at 2.5 µM [3]: 99.1%; viability at 5 µM [3]: 50.3%; viability at 10 µM [3]: 16.3%; IC50 (U-937 renal cancer cells): 6.29 ± 0.26 µM; Toxicity % (U-937 renal cancer cells; 0.312 uM): 0.05447%; Toxicity % (U-937 renal cancer cells; 0.625 uM): 0.1089%; Toxicity % (U-937 renal cancer cells; 1.25 uM): 0.3813%; Toxicity % (U-937 renal cancer cells; 2.5 uM): 0.8715%; Toxicity % (U-937 renal cancer cells; 5 uM): 49.73%; Toxicity % (U-937 renal cancer cells; 10 uM): 83.71%
